Experimental data: paper PMC11887051, “Discovery of ONO-2920632 (VU6011887): A Highly Selective and CNS Penetrant TREK-2 (TWIK-Related K+ Channel 2) Preferring Activator In Vivo Tool Compound” (ACS Chemical Neuroscience, 2025)

Columns and labels:
TREK-1 = target: T1, TREK-1 (Homo sapiens, UniProt O95069); assay: TREK-1 thallium flux assay (hTREK-1/CHO); format: cell-based; design: host or cells: CHO; conditions: for Emax: % activation relative to 10 µM BL-1249
T1 sequence (O95069 1-426): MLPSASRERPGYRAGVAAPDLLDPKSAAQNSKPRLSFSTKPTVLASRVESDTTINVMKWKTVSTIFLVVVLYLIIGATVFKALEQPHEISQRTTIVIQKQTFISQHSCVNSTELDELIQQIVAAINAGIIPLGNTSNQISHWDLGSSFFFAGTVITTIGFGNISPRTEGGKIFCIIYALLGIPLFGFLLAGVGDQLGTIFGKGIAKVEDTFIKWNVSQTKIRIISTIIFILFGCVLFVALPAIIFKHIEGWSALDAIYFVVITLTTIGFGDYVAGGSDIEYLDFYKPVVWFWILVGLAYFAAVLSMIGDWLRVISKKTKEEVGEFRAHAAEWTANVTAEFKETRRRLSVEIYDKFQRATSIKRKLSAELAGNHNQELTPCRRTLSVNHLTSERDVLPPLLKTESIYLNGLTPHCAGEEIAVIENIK
Description: Procedures for Biological Experiments
TREK-1 and TREK-2 thallium flux assay protocol
CHO cells stably expressing human TREK-1 (hTREK-1/CHO) were constructed at Evotec. […]
hTREK-1/CHO or hTREK-2/HEK were plated in 384-well plates at a density of 1.0x10^4 cells/well or 2.0x10^4 cells/well, respectively, and cultured overnight. After the wash by HBSS + 20 mM HEPES buffer, cells were loaded with Thallos dye for 1 hour at room temperature. After the wash […]
dissolved with HBSS + 20mM HEPES buffer were added to each well. After 10 minutes incubation at room temperature, thallium stimulus buffer were added to each well and the fluorescent intensity are measured by Panoptic. The final thallium concentration was 0.36 mM in […]
TREK-1 or 0.24 mM in TREK-2, respectively. […]

mouse TREK-2 = target: T2, mouse TREK-2 (Mus musculus, UniProt Q8BUW1); assay: mouse TREK-2 MPC assay; format: cell-based; conditions: for EC50 / Emax: mouse, manual patch clamp; for TREK-2 preference (mouse MPC): TREK-2 over TREK-1, mouse MPC
T2 sequence (Q8BUW1 1-535): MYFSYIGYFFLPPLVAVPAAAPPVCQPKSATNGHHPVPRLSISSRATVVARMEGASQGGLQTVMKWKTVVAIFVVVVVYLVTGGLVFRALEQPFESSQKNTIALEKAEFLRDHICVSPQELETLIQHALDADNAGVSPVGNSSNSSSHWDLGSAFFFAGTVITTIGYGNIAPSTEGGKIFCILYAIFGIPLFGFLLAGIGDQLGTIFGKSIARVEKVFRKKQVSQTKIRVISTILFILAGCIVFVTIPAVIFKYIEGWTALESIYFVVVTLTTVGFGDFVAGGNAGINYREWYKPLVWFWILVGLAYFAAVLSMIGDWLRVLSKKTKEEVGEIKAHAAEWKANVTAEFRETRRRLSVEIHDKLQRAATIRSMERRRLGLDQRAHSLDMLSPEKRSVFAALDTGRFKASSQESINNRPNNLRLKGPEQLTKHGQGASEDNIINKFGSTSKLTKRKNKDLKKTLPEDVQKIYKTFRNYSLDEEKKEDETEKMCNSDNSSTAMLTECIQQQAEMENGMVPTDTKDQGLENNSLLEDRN

| EC50 (TREK-1) [µM] | Emax (TREK-1) [%] | EC50 (mouse TREK-2) [nM] | Emax (mouse TREK-2) [%] | SMILES | TREK-2 preference (mouse MPC) (mouse TREK-2) [fold] |
| --- | --- | --- | --- | --- | --- |
| 8.1 | 85 | – | – | CS(=O)(=O)Nc1ccc(C(=O)NCc2ccc(Cl)cc2Cl)cc1 [Compound 13] | – |
| 1.6 | 93 | 610 | 97 | O=C(NCc1ccc(Br)cc1Cl)c1ccc(-c2ncn[nH]2)cc1 [Compound 14a] | – |
| 3.8 | 99 | 150 | 105 | Cc1cc(OC(F)(F)F)ccc1CNC(=O)c1ccc2ncnn2c1 [Compound 19a] | 33 |

| SMILES | EC50 (TREK-1) [µM] | Emax (TREK-1) [%] | EC50 (mouse TREK-2) [nM] | Emax (mouse TREK-2) [%] | TREK-2 preference (mouse MPC) (mouse TREK-2) [fold] |
| --- | --- | --- | --- | --- | --- |
| O=C(NCc1ccc(OC(F)(F)F)cc1F)c1ccc2ncnn2c1 [Compound 19b] | 2.8 | 95 | 570 | 105 | 4.7 |
